Measured values taken from US20230348394A1, “COMPOSITIONS AND METHODS FOR TREATING MUSCULAR DYSTROPHIES” (The Regents of the University of California, priority 2020, published 2023).

Test system: SSPN-HiBiT protein (sarcospan)
Experiment: C2C12 SSPN-HiBiT protein reporter assay (12-well and 384-well format)
Type: cell-based, murine
Procedure: C2C12 SSPN-HiBiT myoblasts were seeded at 25,000 cells per well in 2 ml of growth media in 12 well-plates and incubated for 3 days. Upon reaching confluency, the growth media was replaced with 2 ml of differentiation media. At day 2 of differentiation, the media on the cells was replaced with 2 ml of differentiation media containing compounds at a final concentration of 5.5 μM in 0.06% DMSO. For vehicle control-treated cells, 0.06% DMSO was added to the cells. After 48 hrs the cells were washed with PBS and frozen for 2-24 hrs. The plates containing cells were thawed on ice and 100 μl of ice-cold modified RIPA buffer containing 1% Triton X-100, 0.05% DOC, 0.05% SDS, and Halt Protease Inhibitor was added to each well. Cells were scratched, transferred into 1.5 ml tubes, and centrifuged for 20 min at 16,000×g at 4° C. The cell lysates were transferred into new tubes. DC assay was performed on cell lysates to determine protein concentration. White walled, white bottom 384-well microplates (Greiner) were prefilled with 15 μl of PBS and 15 μl of cell lysates were added to each well in triplicate. Then 30 μl Nano-Glo HiBiT Lytic Detection working solution was added to each well and incubated for 30 min at RT with shaking. The luminescence was measured on the EnVision plate reader and the signal was normalized to protein concentration and signal from vehicle-treated controls.
C2C12 SSPN-HiBiT myoblasts were seeded at 500 cells per well in 50 μl of growth media in 384-well white, clear bottom microplates (Greiner) and incubated for 3 days. Upon reaching confluency, the growth media was replaced with 50 μl of differentiation media consisting of phenol-red free DMEM with 2% horse serum (Sigma-Aldrich) using an EL406 combination washer dispenser (Biotek). At day 2 of differentiation, the media on the cells was aspirated, left with a residual volume of 10 μl, and replaced with 30 μl of fresh differentiation media. 0.5 μl of small molecule in DMSO or DMSO alone (for vehicle and positive control wells) were added to each well using a Biomek Fx (Beckman). To ensure proper mixing of the DMSO, 50 μl of additional differentiation media was added to all wells except the positive control treated wells. The final concentration of compound in each treated well was 0.5-10 μM in 0.55% DMSO and 0.55% DMSO only for vehicle. After 48 hrs of incubation, the plate was washed with phenol red-free DMEM, aspirated, and left with a residual volume of 5 μl using EL406 combination washer dispenser. After the wash, 25 μl of differentiation media containing 12 μM DRAQ5 nuclear stain was added to reach a final concentration 10 μM in each well and incubated for 15 min at 37° C. with 5% CO2. The cells were imaged using ImageXpress Micro Confocal High Content Imaging System (Molecular Devices). The nuclei count of imaged cells were determined using a custom module analysis in MetaXpress Analysis software (Molecular Devices). After imaging and analysis, the plate was aspirated, left with a residual volume of 5 μl and placed at −80° C. for 2-24 hrs. The plate was thawed at RT and 25 μl of PBS was added, followed by 30 μl of Nano-Glo HiBiT Lytic Detection working solution prepared according manufacturer recommendations. Luminescence was measured using the EnVision plate reader and the signal of each well was normalized to nuclei count and signal from vehicle-treated controls.
In order to effectively test new analogues, we created method for detecting SSPN protein in cells, e.g., SSPN-HiBiT. SSPN-HiBiT based on a murine C2C12 cell line expressing endogenous SSPN protein with an N-term fusion protein called the HiBiT, an 11 amino acid subunit of a luciferase enzyme (FIG. 10a). The SSPN-HiBiT protein is quantified through addition of substrate and a larger subunit of the luciferase enzyme to catalyze the formation of luminescent signal. […]

With CCN(CC)c1ccc2cc(C(=O)Nc3ccc(C(=O)N4CCCCCC4)cc3)c(=O)oc2c1 [OT-9] the SSPN-HiBiT reporter response (0.5-10 μM, 12-well and 384-well plate formats) was “dose-sensitive increases in SSPN” and the “SSPN-HiBiT, fold change over vehicle” value (Table 1, *p<0.05) was 2.29* fold change over vehicle.
